Source: patent EP0745595A1, “3-(3-Aryloxyphenyl)-1-(substituted methyl)-s-triazine-2,4,6-oxo or thiotrione herbicidal agents” (American Cyanamid Company, priority 1995, dated 1996)

Assays:
Format in all cases: in vivo
[1] = system: ABUTILON THEOPHRASTI, MEDIC.; experiment: Postemergence herbicidal evaluation, ABUTH (Velvetleaf); details: for ABUTH, herbicide rating (0-9): rated four to five weeks after treatment, averaged
Procedure, shortened: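 This postemergence herbicide test used two-week-old velvetleaf seedlings grown in jiffy flats. Each compound was sprayed at 40 psi as a dispersion in 50/50 acetone/water with 0.5% TWEEN®20 surfactant. Plants then received routine greenhouse care. After four to five weeks, injury was scored visually on a 0-9 scale against a control, and replicate tests were averaged.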

[2] = system: AMBROSIA ARTEMISIIFOLIA, L.; experiment: Postemergence herbicidal evaluation, AMBEL (Ragweed, Common); details: for AMBEL, herbicide rating (0-9): rated four to five weeks after treatment, averaged
Procedure, shortened: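 Postemergence herbicidal activity on AMBEL (common ragweed) was assessed on two-week-old seedlings grown in jiffy flats. Treatment solutions of 50/50 acetone/water with 0.5% TWEEN®20 surfactant were sprayed at 40 psi. After four to five weeks in the greenhouse, plants were scored 0-9 against a control for stand, vigor, malformation, size, chlorosis and overall appearance, with multiple tests averaged.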

CHENOPODIUM ALBUM, L. [3] = experiment: Postemergence herbicidal evaluation, CHEAL (Lambsquarters, Common); details: for CHEAL, herbicide rating (0-9): rated four to five weeks after treatment, averaged
Procedure, shortened: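 Postemergence herbicidal activity on Chenopodium album was tested by spraying two-week-old seedlings grown in jiffy flats with compound in acetone/water (50/50) plus 0.5% TWEEN®20, using a 40 psi nozzle. Four to five weeks after treatment, stand, vigor, malformation, size, chlorosis and overall appearance were scored 0-9 relative to controls, with repeat tests averaged.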

IPOMOEA SPP. = experiment: Postemergence herbicidal evaluation, IPOSS (Morningglory spp.); details: for IPOSS, herbicide rating (0-9): rated four to five weeks after treatment, averaged
Procedure, shortened: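 In this greenhouse postemergence herbicide test on Ipomoea spp. (morningglory), compounds in 50/50 acetone/water with 0.5% TWEEN®20 were sprayed at 40 psi onto seedlings about two weeks old grown in jiffy flats. After four to five weeks, injury was scored on a 0-9 scale covering stand, vigor, malformation, size, chlorosis and overall appearance versus control, with repeat tests averaged.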

GALIUM APARINE = experiment: Postemergence herbicidal evaluation, GALAP (Galium); set-up: key to GALAP rating / Herbicidal effect rating, GALAP / GALAP: 0-9 visual rating scale vs untreated control
Procedure, shortened: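 In this postemergence greenhouse test, two-week-old Galium aparine seedlings grown in jiffy flats received a 40 psi spray of compound in acetone/water (50/50) with 0.5% TWEEN®20 surfactant. After four to five weeks, stand, vigor, malformation, size, chlorosis and overall appearance were compared with untreated controls on a 0-9 scale, averaging multiple tests.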

[4] = system: ECHINOCHLOA CRUS-GALLI, (L) BEAU; experiment: Postemergence herbicidal evaluation, ECHCG (Barnyardgrass); set-up: key to ECHCG rating / Herbicidal effect rating, ECHCG / ECHCG: 0-9 visual rating scale vs untreated control
Procedure, shortened: (§1)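 Ratings (0-9) reflect visual stand, vigor, malformation, size and chlorosis compared with untreated plants, assessed 4-5 weeks after postemergence spraying. Treatment was applied to roughly two-week-old seedlings at about 0.125-0.500 kg/ha in acetone/water with 0.5% Tween 20; replicate tests were averaged.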

[5] = system: SETARIA VIRIDIS, (L) BEAU; experiment: Postemergence herbicidal evaluation, SETVI (Foxtail, Green); set-up: key to SETVI rating / Herbicidal effect rating, SETVI / SETVI: 0-9 visual rating scale vs untreated control
Procedure, shortened: as §1

[6] = system: TRITICUM AESTIVUM, CV. APOLLO; experiment: Postemergence herbicidal evaluation, TRZAWO (Wheat, Winter, CV. APOLLO)
Protocol: In the tests, seedling plants are grown in jiffy flats for about two weeks. The test compounds are dispersed in 50/50 acetone/water mixtures containing 0.5% TWEEN®20, a polyoxyethylene sorbitan monolaurate surfactant of Atlas Chemical Industries, […] through a spray nozzle operating at 40 psi for a predetermined time. After spraying, the plants are placed on greenhouse benches and are cared for in the usual manner, commensurate with conventional greenhouse practices. From four to five weeks after treatment, the seedling plants are examined and rated according to the rating system set forth below. Where more than one test is involved for a given compound, the data are averaged.
Plant species employed in these evaluations are reported by header abbreviation, common name and scientific name.
Results of herbicide evaluation are expressed on a rating scale (0-9). The scale is based upon a visual observation of plant stand, vigor, malformation, size, chlorosis and overall plant appearance as compared with a control.

ZEA MAYS L. = experiment: Postemergence herbicidal evaluation, ZEAMX (Corn, Field)
Procedure, shortened: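 This greenhouse postemergence test treated corn plants about two weeks old. Compounds in a 50/50 acetone/water mixture with 0.5% TWEEN®20 were applied through a spray nozzle at 40 psi. After four to five weeks, injury was scored 0-9 against an untreated control, judging stand, vigor, malformation, size, chlorosis and overall appearance. Repeated tests were averaged.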

[7] = system: ORYZA SATIVA, L. TEBONNET; experiment: Rice tolerance to post-transplant applications under flooded paddy conditions, ORYSAT (Rice, Tebonnet); details: for ORYSAT: post-transplanted rice; for ORYSAT herbicidal rating (rice tolerance): post-transplant rice, rated three to four weeks after treatment;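 for ORYSAT herbicidal rating (rice tolerance): applied to flooded soil surface three days after transplanting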
Procedure, shortened: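 Visual 0-9 rating against untreated control (stand, vigor, malformation, size, chlorosis, overall appearance), taken 3-4 weeks after treatment. Flooded silt loam, water at 1.5-3 cm; two 10-day-old seedlings per pot; compound applied to flooded soil surface 3 days post-transplant at ~0.5-0.063 kg/ha.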

CHENOPODIUM ALBUM, L. [8] = experiment: Preemergence herbicidal evaluation, CHEAL (Lambsquarters, Common); details: four to five weeks after treatment
Procedure, shortened: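 Seeds mixed with potting soil were planted on about one inch of soil in cups, then sprayed with aqueous acetone solution of test compound at about 0.125 to 0.50 kg per hectare. Plants grown under greenhouse conditions; visual rating on a 0-9 scale versus untreated control at 4-5 weeks.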

## Cn1c(=O)[nH]c(=O)n(-c2cc(Oc3c(F)cc(C(F)(F)F)cc3Cl)ccc2F)c1=O [C, reference compound]
[1]; 0.031 kg/ha
  Herbicidal effect rating, ABUTH: 2.0
[1]; 0.063 kg/ha
  Herbicidal effect rating, ABUTH: 4.0
[1]; 0.125 kg/ha
  Herbicidal effect rating, ABUTH: 7.0
[1]; 0.250 kg/ha
  Herbicidal effect rating, ABUTH: 7.0
[2]; 0.031 kg/ha
  Herbicidal effect rating, AMBEL: 1.0
[2]; 0.063 kg/ha
  Herbicidal effect rating, AMBEL: 3.0
[2]; 0.125 kg/ha
  Herbicidal effect rating, AMBEL: 4.0
[2]; 0.250 kg/ha
  Herbicidal effect rating, AMBEL: 6.0
CHENOPODIUM ALBUM, L. [3]; 0.031 kg/ha
  Herbicidal effect rating, CHEAL: 3.0
CHENOPODIUM ALBUM, L. [3]; 0.063 kg/ha
  Herbicidal effect rating, CHEAL: 4.0
CHENOPODIUM ALBUM, L. [3]; 0.125 kg/ha
  Herbicidal effect rating, CHEAL: 7.0
CHENOPODIUM ALBUM, L. [3]; 0.250 kg/ha
  Herbicidal effect rating, CHEAL: 7.0
IPOMOEA SPP.; 0.031 kg/ha
  Herbicidal effect rating, IPOSS: 4.0
IPOMOEA SPP.; 0.063 kg/ha
  Herbicidal effect rating, IPOSS: 5.0
IPOMOEA SPP.; 0.125 kg/ha
  Herbicidal effect rating, IPOSS: 6.0
IPOMOEA SPP.; 0.250 kg/ha
  Herbicidal effect rating, IPOSS: 9.0
GALIUM APARINE; 0.031 kg/ha
  Herbicidal effect rating, GALAP: 2.0
GALIUM APARINE; 0.063 kg/ha
  Herbicidal effect rating, GALAP: 6.0
GALIUM APARINE; 0.125 kg/ha
  Herbicidal effect rating, GALAP: 7.0
GALIUM APARINE; 0.250 kg/ha
  Herbicidal effect rating, GALAP: 7.0
[4]; 0.031 kg/ha
  Herbicidal effect rating, ECHCG: 0.0
[4]; 0.063 kg/ha
  Herbicidal effect rating, ECHCG: 0.0
[4]; 0.125 kg/ha
  Herbicidal effect rating, ECHCG: 0.0
[4]; 0.250 kg/ha
  Herbicidal effect rating, ECHCG: 2.0
[5]; 0.031 kg/ha
  Herbicidal effect rating, SETVI: 0.0
[5]; 0.063 kg/ha
  Herbicidal effect rating, SETVI: 0.0
[5]; 0.125 kg/ha
  Herbicidal effect rating, SETVI: 0.0
[5]; 0.250 kg/ha
  Herbicidal effect rating, SETVI: 1.0
[6]; 0.031 kg/ha
  Herbicidal effect rating, TRZAWO: 3.5
[6]; 0.063 kg/ha
  Herbicidal effect rating, TRZAWO: 4.0
[6]; 0.125 kg/ha
  Herbicidal effect rating, TRZAWO: 4.5
[6]; 0.250 kg/ha
  Herbicidal effect rating, TRZAWO: 4.5
ZEA MAYS L.; 0.031 kg/ha
  Herbicidal effect rating, ZEAMX: 3.0
ZEA MAYS L.; 0.063 kg/ha
  Herbicidal effect rating, ZEAMX: 3.5
ZEA MAYS L.; 0.125 kg/ha
  Herbicidal effect rating, ZEAMX: 4.0
ZEA MAYS L.; 0.250 kg/ha
  Herbicidal effect rating, ZEAMX: 4.5
[7]; Rate 0.031 kg/ha
  ORYSAT: 1.0
[7]; Rate 0.063 kg/ha
  ORYSAT: 1.0
[7]; Rate 0.125 kg/ha
  ORYSAT: 3.0
[7]; Rate 0.250 kg/ha
  ORYSAT: 5.0

## COC(=O)Cn1c(=O)[nH]c(=O)n(-c2cc(Oc3ccc(C(F)(F)F)cc3Cl)ccc2[N+](=O)[O-])c1=O [Compound 8, Methyl 3-{5-[(2-chloro-α,α,α-trifluoro-p-tolyl)oxy]-2-nitrophenyl}tetrahydro-2,4,6-trioxo-s-triazine-1(2H)-acetate]
[1]; Rate 0.125 kg/ha
  ABUTH, herbicide rating (0-9): 9.0
[1]; Rate 0.250 kg/ha
  ABUTH, herbicide rating (0-9): 9.0
[1]; Rate 0.500 kg/ha
  ABUTH, herbicide rating (0-9): 9.0
[2]; Rate 0.125 kg/ha
  AMBEL, herbicide rating (0-9): 9.0
[2]; Rate 0.250 kg/ha
  AMBEL, herbicide rating (0-9): 9.0
[2]; Rate 0.500 kg/ha
  AMBEL, herbicide rating (0-9): 9.0
CHENOPODIUM ALBUM, L. [3]; Rate 0.125 kg/ha
  CHEAL, herbicide rating (0-9): 9.0
CHENOPODIUM ALBUM, L. [3]; Rate 0.250 kg/ha
  CHEAL, herbicide rating (0-9): 9.0
CHENOPODIUM ALBUM, L. [3]; Rate 0.500 kg/ha
  CHEAL, herbicide rating (0-9): 9.0
IPOMOEA SPP.; Rate 0.125 kg/ha
  IPOSS, herbicide rating (0-9): 9.0
IPOMOEA SPP.; Rate 0.250 kg/ha
  IPOSS, herbicide rating (0-9): 9.0
IPOMOEA SPP.; Rate 0.500 kg/ha
  IPOSS, herbicide rating (0-9): 9.0
CHENOPODIUM ALBUM, L. [8]; Rate 0.125 kg/ha
  CHEAL rating: 9.0
CHENOPODIUM ALBUM, L. [8]; Rate 0.250 kg/ha
  CHEAL rating: 9.0
CHENOPODIUM ALBUM, L. [8]; Rate 0.500 kg/ha
  CHEAL rating: 9.0
[7]; Rate 0.063 kg/ha
  ORYSAT herbicidal rating (rice tolerance): 0.0
[7]; Rate 0.125 kg/ha
  ORYSAT herbicidal rating (rice tolerance): 0.0
[7]; Rate 0.250 kg/ha
  ORYSAT herbicidal rating (rice tolerance): 1.0
[7]; Rate 0.500 kg/ha
  ORYSAT herbicidal rating (rice tolerance): 2.0
